Data set [1] has as its system MDCK cells. To be noted: uninfected MDCK cells, 3.1 µM to 250 µM, 48 h.
Data set [2] has as its system influenza A H3N2 virus. Nature of the data set: Antiviral activity in influenza A virus-infected MDCK cells (prevention of virus-induced cytopathicity, CellTiter-Glo, 48 h). The data set is classed as cell-based, influenza A virus A/Aichi/2/68 (H3N2). To be noted: for antiviral activity (in words): influenza A H3N2-infected MDCK cells, up to 250 µM; for IC50: Influenza A virus, H3N2, MDCK, 48 h, MDCK cells infected with influenza A H3N2, MOI 0.05, compound added with virus, read-out: IC50 (half-maximal inhibitory concentration, antiviral activity); for fold more active compared to GL: ratio of antiviral IC50 values versus lead compound GL. As to the method: For biological testing the compounds were dissolved in DMSO and diluted in cell culture medium to a maximum final DMSO concentration of 1%. For determination of the cytotoxicity of the compounds, MDCK cells were treated with compound concentrations ranging from 3.1 µM to 250 µM for 48 h and then cell viability was determined as a surrogate endpoint for cytotoxicity. […] GL was not toxic at 2500 µM (Table 1). The antiviral activity of the compounds was determined by infecting MDCK cells with influenza A H3N2 virus and treating them with different concentrations of compounds at the same time. […] Compound 16 containing only the N-succinyl substituent is a close analogue to CBX bearing an amide instead of the ester group. […] This was further supported by the data obtained with compound 23 containing a 1-thioethyl-linked glucuronic acid residue at position 3 of 1,2-dehydro-glycyrrhetinic acid.
The influenza A virus (IAV) was obtained from American Tissue Culture Collection (A/Aichi/2/68 (H3N2); VR-547). Virus stocks were prepared by propagation of virus on Mardin-Darby canine kidney (MDCK; ATCC CCL-34) cells and infectious titers of virus stocks were determined by the 50% tissue culture infective dose (TCID50) analysis as described in [5].
MDCK cells were seeded in 96-well plates at 2×10^4 cells/well using DMEM/Ham’s F-12 (1:1) medium containing 10% foetal bovine serum (FBS), 2 mM L-glutamine and 1% antibiotic– antimycotic solution (penicillin, 10.000 units/mL; streptomycin, sulfate 10 mg/mL; Amphotericin B, 25 µg/ml) (all from PAA). Until infection the cells were incubated for 5 h at 37 °C/5.0% CO2 to form a ~80% confluent monolayer on the bottom of the well. Test compounds were dissolved in DMSO and dilution series were prepared in infection medium (DMEM/Ham’s F-12 (1:1) containing 5 µg/mL trypsin (Sigma T4945), and 1% antibiotic–antimycotic solution) resulting in a final plate well DMSO concentration of 1%. The virus stock was generally diluted in infection medium (DMEM/Ham’s F-12 (1:1) containing 5 µg/mL trypsin, 1% DMSO, and 1% antibiotics) to a theoretical multiplicity of infection (MOI) of 0.05. After removal of the culture medium and one washing step with PBS, the virus and compound solution were added together to the cells. In the wells used for cytotoxicity determination (uninfected cells), the virus suspension was replaced by infection medium. Each treatment was conducted in two replicates. After incubation at 37 °C, […]
formation, or other notable abnormalities. Then, cell viability was determined by using CellTiter-Glo luminescent cell viability assay (Promega). The supernatant was removed carefully and 65 µL of the reconstituted reagent was added to each well and incubated for 15 min at room temperature under gentle shaking. Then, 60 µL of the solution was transferred to an opaque plate and luminescence (RLU) was measured by using a Synergy HT plate reader (Biotek). The […]
compounds were titrated on virus-infected MDCK cells and the response (RLU) was used to determine the IC50 value by using a 4-parameter logistic equation (GraphPad Prism) whereby the top and bottom of the curve were defined by the response (RLU) of untreated uninfected cells and untreated infected cells, respectively. The cytotoxicity of the compounds was determined by titration on uninfected MDCK cells, and the response (RLU) was used to determine the CC50 value by using a 4-parameter logistic equation whereby the top of the curve was defined by the response (RLU) of untreated uninfected cells. […]
(Damage to the host cells serves as the signal in cytopathic effect assays.)

A short description of data set [3]: in vitro. To be noted: dog, CC50 (cytotoxic concentration 50%), compound-treated uninfected MDCK cells, 48 h, cell viability.

Bounds are passed on as bounds.

By CC50 is commonly meant the concentration giving 50% cytotoxicity. `CC1(C)[C@@H](OC(=O)CCC(=O)O)CC[C@]2(C)[C@H]3C(=O)C=C4[C@@H]5C[C@@](C)(C(=O)O)CC[C@]5(C)CC[C@@]4(C)[C@]3(C)CC[C@@H]12` [CBX, carbenoxolone, reference compound]: the “cytotoxicity (in words)” value in data set [1] was “toxic at low concentrations”. In data set [2], the “antiviral activity (in words)” value was “did not show any antiviral activity at nontoxic concentrations”. The midpoint of cytotoxicity in data set [3], the CC50, lay at 17.8 ± 2.3 µM.

In the case of `COC(=O)[C@H]1O[C@@H](SCCN[C@H]2CC[C@@]3(C)C(CC[C@]4(C)C3C(=O)C=C3[C@@H]5C[C@@](C)(C(=O)O)CC[C@]5(C)CC[C@]34C)C2(C)C)[C@H](O)[C@@H](O)[C@@H]1O` (some centres unmarked) [Compound 12], in data set [2], the IC50 is 220 ± 41 µM and the “fold more active compared to GL” value is reported as 4.7 fold. In data set [3], this molecule had a CC50 greater than 250 µM.

Take `CC1(C)C2CC[C@]3(C)C(C(=O)C=C4[C@@H]5C[C@@](C)(C(=O)O)CC[C@]5(C)CC[C@]43C)[C@@]2(C)CC[C@@H]1NCCS[C@@H]1O[C@H](C(=O)O)[C@@H](O)[C@H](O)[C@H]1O` (some centres unmarked) [Compound 13]: the IC50 in data set [2] was greater than 250 µM. Further, the CC50 in data set [3] was greater than 250 µM.

`COC(=O)[C@H]1O[C@@H](SCCN(C(C)=O)[C@H]2CC[C@@]3(C)C(CC[C@]4(C)C3C(=O)C=C3[C@@H]5C[C@@](C)(C(=O)O)CC[C@]5(C)CC[C@]34C)C2(C)C)[C@H](O)[C@@H](O)[C@@H]1O` (some centres unmarked) [Compound 14]: in data set [2], the IC50 amounted to 72.1 µM and the “fold more active compared to GL” value is “approximately 14 fold”.

In the case of `CC(=O)N(CCS[C@@H]1O[C@H](C(=O)O)[C@@H](O)[C@H](O)[C@H]1O)[C@H]1CC[C@@]2(C)C(CC[C@]3(C)C2C(=O)C=C2[C@@H]4C[C@@](C)(C(=O)O)CC[C@]4(C)CC[C@]23C)C1(C)C` (some centres unmarked) [Compound 15], in data set [2], the IC50 is 87 ± 7.9 µM and the “antiviral activity (in words)” value is “IC50 value in the same range as the methyl ester 14”. Further, in data set [3], the CC50 was greater than 250 µM.

For `CC1(C)C2CC[C@]3(C)C(C(=O)C=C4[C@@H]5C[C@@](C)(C(=O)O)CC[C@]5(C)CC[C@]43C)[C@@]2(C)CC[C@@H]1NC(=O)CCC(=O)O` (some centres unmarked) [Compound 16, reference compound], the “cytotoxicity (in words)” value in data set [1] is given as “not toxic”. Also, in data set [2], the IC50 is greater than 250 µM and the “antiviral activity (in words)” value is “inactive”. For the same molecule, in data set [3], the CC50 was greater than 250 µM.

With `COC(=O)CCC(=O)N(CCS[C@@H]1O[C@H](C(=O)OC)[C@@H](O)[C@H](O)[C@H]1O)[C@H]1CC[C@@]2(C)C(CC[C@]3(C)C2C(=O)C=C2[C@@H]4C[C@@](C)(C(=O)O)CC[C@]4(C)CC[C@]23C)C1(C)C` (some centres unmarked) [Compound 18], in data set [2], the IC50 was found to be 125 ± 15.9 µM and the “fold more active compared to GL” value was 8 fold. The CC50 in data set [3] was greater than 250 µM.

As for `CC1(C)C2CC[C@]3(C)C(C(=O)C=C4[C@@H]5C[C@@](C)(C(=O)O)CC[C@]5(C)CC[C@]43C)[C@@]2(C)CC[C@@H]1N(CCS[C@@H]1O[C@H](C(=O)O)[C@@H](O)[C@H](O)[C@H]1O)C(=O)CCC(=O)O` (some centres unmarked) [Compound 19], the IC50 in data set [2] is greater than 250 µM. Moreover, the CC50 in data set [3] is greater than 250 µM.

Regarding `CC1(C)C(SCCS[C@@H]2O[C@H](C(=O)O)[C@@H](O)[C@H](O)[C@H]2O)C=C[C@@]2(C)C1CC[C@]1(C)C2C(=O)C=C2[C@@H]3C[C@@](C)(C(=O)O)CC[C@]3(C)CC[C@]21C` (some centres unmarked) [Compound 23], the “cytotoxicity (in words)” value in data set [1] is “no cytotoxicity at the concentrations tested”. The IC50 in data set [2] was 54 ± 13 µM. Moreover, the CC50 in data set [3] was greater than 250 µM.

As to `CC1(C)[C@@H](O)CC[C@]2(C)[C@H]3C(=O)C=C4[C@@H]5C[C@@](C)(C(=O)O)CC[C@]5(C)CC[C@@]4(C)[C@]3(C)CC[C@@H]12` [GA, glycyrrhetinic acid, reference compound], the “antiviral activity (in words)” value in data set [2] is reported as “did not show any antiviral activity at nontoxic concentrations”. In data set [3], this molecule registered a CC50 of 7.4 ± 0.05 µM.

For `CC1(C)[C@@H](O[C@H]2O[C@H](C(=O)O)[C@@H](O)[C@H](O)[C@H]2O[C@@H]2O[C@H](C(=O)O)[C@@H](O)[C@H](O)[C@H]2O)CC[C@]2(C)[C@H]3C(=O)C=C4[C@@H]5C[C@@](C)(C(=O)O)CC[C@]5(C)CC[C@@]4(C)[C@]3(C)CC[C@@H]12` [GL, glycyrrhizin], the IC50 in data set [2] is 1030 ± 181 µM. This molecule displayed a CC50 in data set [3] greater than 2500 µM.
